In one experiment the target is T1, human CB2R (Homo sapiens, UniProt P34972).
T1 construct: host or cells: CHO cells
In words: CB2R mediated modulation of cAMP synthesis. Type of experiment: cell-based. As for the experimental part: B. CB2R Mediated Modulation of cAMP Synthesis:
Compounds of the invention are evaluated for their CB2 agonist or inverse agonistic activity in accordance with the following experimental method.
(§1) CHO cells expressing human CB2R (Euroscreen) are plated at a density of 5000 cells per well in 384 well plates and incubated overnight at 37° C. After removing the media, the cells are treated with test compounds diluted in stimulation buffer containing 1 mM IBMX, 0.25% BSA and 10 uM Forskolin. The assay is incubated for 30 minutes at 37° C. Cells are lysed and the cAMP concentration is measured using DiscoverX-XS cAMP kit, following the manufacturer's protocol. In this setting, agonists will decrease forskolin induced production of cAMP while inverse agonists will further increase forskolin induced production of cAMP. EC50 of agonists are calculated as follows. The maximal amount of cAMP produced by forskolin compared to the level of cAMP inhibited by 1 uM CP55940 is defined as 100%. […] Data is analyzed using a four-parameter logistic model. (Model 205 of XLfit 4.0).

The next experiment has as its target T2, human CB1R (Homo sapiens, UniProt P21554).
T2 construct: host or cells: CHO cells
In words: CB1R mediated modulation of cAMP synthesis. Type of experiment: cell-based. The procedure:
C. CB1R Mediated Modulation of cAMP Synthesis:
Compounds of the invention are evaluated for their CB1 agonist or inverse agonistic activity in accordance with the following experimental method.
as §1, with “CB1R” for “CB2R”

[1] abbreviates: CHO cells expressing human CB2R, inhibition of forskolin-stimulated cAMP synthesis, read-out: CB2 EC50.
[2] abbreviates: CHO cells expressing human CB1R, inhibition of forskolin-stimulated cAMP synthesis, read-out: CB1 EC50.

SMILES strings stand for the structures. Where two headings read alike, the source gives them in different places.

A word on the EC50: it is the concentration at which the effect is half-maximal.

T1 sequence (P34972 whole entry): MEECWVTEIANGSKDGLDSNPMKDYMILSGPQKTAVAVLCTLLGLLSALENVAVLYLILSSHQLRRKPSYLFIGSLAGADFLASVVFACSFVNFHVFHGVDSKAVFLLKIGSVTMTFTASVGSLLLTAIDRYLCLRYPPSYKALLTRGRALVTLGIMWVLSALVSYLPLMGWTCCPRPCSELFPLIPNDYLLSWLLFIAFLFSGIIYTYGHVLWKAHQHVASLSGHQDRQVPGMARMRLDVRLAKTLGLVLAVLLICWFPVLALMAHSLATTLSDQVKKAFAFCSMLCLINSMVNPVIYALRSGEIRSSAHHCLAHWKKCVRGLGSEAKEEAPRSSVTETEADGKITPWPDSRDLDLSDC
T2 sequence (P21554 whole entry): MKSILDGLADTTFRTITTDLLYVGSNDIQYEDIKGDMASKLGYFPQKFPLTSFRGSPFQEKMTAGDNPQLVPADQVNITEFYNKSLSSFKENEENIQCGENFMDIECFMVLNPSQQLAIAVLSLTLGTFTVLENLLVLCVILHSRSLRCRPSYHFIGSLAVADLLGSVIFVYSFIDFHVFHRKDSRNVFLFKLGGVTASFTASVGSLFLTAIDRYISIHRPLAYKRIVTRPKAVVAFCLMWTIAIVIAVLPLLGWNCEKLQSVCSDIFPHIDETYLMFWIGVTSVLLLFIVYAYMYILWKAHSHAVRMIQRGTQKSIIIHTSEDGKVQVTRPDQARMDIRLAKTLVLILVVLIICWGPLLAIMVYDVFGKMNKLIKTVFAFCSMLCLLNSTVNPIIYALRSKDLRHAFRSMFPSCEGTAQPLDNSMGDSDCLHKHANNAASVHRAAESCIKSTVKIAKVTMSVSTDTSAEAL

Take `CC(C)(CO)c1cc(NC(=O)C(C)(C)S(=O)(=O)CC2CCOCC2)on1`: the EC50 at human CB2R (setting [1]) is 39 nM; on human CB1R (setting [2]) it was more than 50000 nM.
As for `CC(C)(CO)c1cc(NC(=O)C(C)(C)S(=O)(=O)C2CCOCC2)on1`, the EC50 at human CB2R is 11 nM; on human CB1R it was more than 50000 nM.
On to `CC(C)(CO)c1cc(NC(=O)C(C)(C)S(=O)(=O)N2CCC2)on1`, for which the EC50 is 288 nM at human CB2R (setting [1]) and more than 20000 nM on human CB1R (setting [2]).
Consider `CC(C)(CO)c1cc(NC(=O)C(C)(C)S(=O)(=O)CCCC(F)(F)F)on1`, for which the EC50 at human CB2R (setting [1]) is 15 nM; on human CB1R (setting [2]) it was more than 20000 nM.
On the same counts, the results for `COc1ccc(-c2nnc(NC(=O)C(C)(C)S(=O)(=O)CC3(C)CCOCC3)[nH]2)cc1` are 186 nM and more than 20000 nM.
On the same counts, the results for `CC(C)(C(=O)Nc1nnc(-c2ccc(OC(F)(F)F)cc2)[nH]1)S(=O)(=O)CC1CCOCC1` are 337 nM and more than 20000 nM.
For `CC(C)(C(=O)Nc1nnc(-c2ccc(OC(F)(F)F)cc2)[nH]1)S(=O)(=O)C1CCOCC1` the same measures were 194 nM and more than 20000 nM.
For the compound `CC(C)(CO)c1cc(NC(=O)C(C)(C)S(=O)(=O)c2cccc(F)c2F)on1`, the EC50 on human CB2R (setting [1]) is 172 nM; at human CB1R (setting [2]), more than 20000 nM.
For `CCOc1ccc(-c2nnc(NC(=O)C(C)(C)S(=O)(=O)C3CCOCC3)[nH]2)cc1` the same measures were 208 nM and more than 50000 nM.
As for `CC(C)(CO)c1cc(NC(=O)C(C)(C)S(=O)(=O)CC2CCOCC2)no1`, the values for the concentration giving a half-maximal response (EC50) on human CB2R (setting [1]) and on human CB1R (setting [2]) were 208 nM and more than 50000 nM, respectively.
For `CC(C)(C(=O)Nc1cc(C2(CO)CC2)no1)S(=O)(=O)C1CCOCC1`, the EC50 at human CB2R (setting [1]) is 117 nM; on human CB1R (setting [2]) it was more than 50000 nM.
On the same counts, the results for `COCC(C)(C)c1cc(NC(=O)C(C)(C)S(=O)(=O)CC2CCOCC2)no1` are 137 nM and more than 20000 nM.
For `CC(C)(C(=O)Nc1cc(C2(CO)CC2)no1)S(=O)(=O)CCCC(F)(F)F` the same measures were 247 nM and more than 50000 nM.
In the case of `COc1ccc(-c2nnc(NC(=O)C(C)(C)S(=O)(=O)CC3CC3)[nH]2)cc1`, the EC50 was 32 nM at human CB2R and more than 50000 nM at human CB1R.
For `CC(C)(C(=O)Nc1nnc(-c2ccc(O)cc2)[nH]1)S(=O)(=O)c1ccc(F)cc1` the same measures were 4 nM and more than 20000 nM.
With `COCC(C)(C)c1cc(NC(=O)C(C)(C)S(=O)(=O)CC2CC2)on1`, the EC50 on human CB2R (setting [1]) was 120 nM; on human CB1R (setting [2]), more than 50000 nM.
For `COCC(C)(C)c1cc(NC(=O)C(C)(C)S(=O)(=O)C2CCCC2)on1`, the figures for the EC50 at human CB2R and at human CB1R were 15 nM and more than 20000 nM, respectively.
`CC(C)(C(=O)Nc1cc(C2(CO)CCCC2)no1)S(=O)(=O)CC1CCC1`: the EC50 at human CB2R is 25 nM; at human CB1R, more than 20000 nM.
For `CC(C)(C(=O)Nc1cc(C2(CO)CCCCC2)no1)S(=O)(=O)CC1CCC1` the same measures were 67 nM and more than 20000 nM.
`CC(C)(CO)c1cc(NC(=O)C(C)(C)S(=O)(=O)CCC(F)(F)F)on1`: the EC50 was 105 nM on human CB2R (setting [1]) and more than 50000 nM on human CB1R (setting [2]).
For `CCOc1ccc(-c2n[nH]c(NC(=O)C(C)(C)S(=O)(=O)CC3CC3)n2)cc1` the same measures were 488 nM and more than 50000 nM.
Regarding `COCC(C)(C)c1cc(NC(=O)C(C)(C)S(=O)(=O)CC2CC2)no1`, the EC50 on human CB2R (setting [1]) was 121 nM; on human CB1R (setting [2]) it was more than 50000 nM.
For the compound `CC(C)(CO)c1cc(NC(=O)C(C)(C)S(=O)(=O)C2CCCC2)no1`, the EC50 is 222 nM on human CB2R (setting [1]) and not below 50000 nM at human CB1R (setting [2]).
On the same counts, the results for `CC(C)(CO)c1cc(NC(=O)C2(S(=O)(=O)C3CCOCC3)CCC2)on1` are 212 nM and more than 50000 nM.
On the same counts, the results for `CC(C)(C(=O)Nc1nc(-c2cccc(O)c2)n[nH]1)S(=O)(=O)CC1CC1` are 283 nM and more than 50000 nM.
In the case of `CC(C)(C(=O)Nc1nc(-c2cccc(O)c2)n[nH]1)S(=O)(=O)C1CCOCC1`, the results for the EC50 on human CB2R (setting [1]) and at human CB1R (setting [2]) were 130 nM and more than 50000 nM, respectively.
Take `CC[C@H](C)S(=O)(=O)C(C)(C)C(=O)Nc1cc(C(C)(C)CO)no1`: the EC50 was 118 nM at human CB2R (setting [1]) and more than 50000 nM on human CB1R (setting [2]).

For the origin of these results see patent US8048899B2, “Compounds which selectively modulate the CB2 receptor” (Boehringer Ingelheim International GmbH, priority 2008, dated 2011).
